The results in this text go back to patent US9120812B2, “Pyrimidooxazocine derivatives as mTOR-inhibitors” (SANOFI, priority 2012, dated 2015).

For test [1], the target named is mTOR (human recombinant aa mTOR 1360-2549) (Homo sapiens (Human), UniProt P42345). Briefly: mTOR enzymatic test by TR-FRET (phosphorylation of GFP-4EBP1). Format: biochemical. The method, boiled down: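 TR-FRET detection of GFP-4EBP1 phosphorylation by a terbium-labelled anti-phospho-Thr46 antibody. Kinase reaction ran 30 min at room temperature, was quenched with EDTA (10 mM final) plus Tb-antibody (2 nM final) and left 60 min. Emission at 520 and 490 nm after 340 nm excitation, reported as the 520/490 ratio.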
Background: Time-resolved FRET reads energy transfer from a long-lived donor to a nearby acceptor.

A further test addresses PI3Kα (p110α/p85α) (Homo sapiens (Human), UniProt P42336). Kind of test: PI3Kα enzymatic test by measuring the consumption of ATP. Format: biochemical. The method, boiled down:
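p110α/p85α (1.7 μg/ml) with 50 μM PIP2 and 2 μM ATP in pH 7.5 Tris buffer with EGTA, MgCl2, Chaps, DTT; reaction 90 min. Remaining ATP measured by luciferin/luciferase luminescence; IC50 from threefold serial dilutions spanning at least 10 000-fold.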

The subject of another test is U87MG tumour cells. Kind of test: Test of in vitro proliferation of U87MG tumour cells. Format: cell-based. Particulars: Homo sapiens, U-87 MG, 72 h, U87MG cells, 72 hours; read-out: U87 Cell Proliferation IC50. As to the method:
Model 4: Test of in vitro Proliferation of U87MG Tumour Cells.
The cell growth is determined with the reagent CellTiter 96 AQueous One Solution Cell Proliferation Assay from Promega (Cat. No. G3581).

A further test concerns Akt-pS473 in U87MG cells. Conditions: Homo sapiens, U-87 MG, read-out: U87 Akt-pS473 % Inhibition or IC50, nM (IC50), U87MG cells.

Chain of PI3Kα (p110α/p85α) (P42336 whole entry): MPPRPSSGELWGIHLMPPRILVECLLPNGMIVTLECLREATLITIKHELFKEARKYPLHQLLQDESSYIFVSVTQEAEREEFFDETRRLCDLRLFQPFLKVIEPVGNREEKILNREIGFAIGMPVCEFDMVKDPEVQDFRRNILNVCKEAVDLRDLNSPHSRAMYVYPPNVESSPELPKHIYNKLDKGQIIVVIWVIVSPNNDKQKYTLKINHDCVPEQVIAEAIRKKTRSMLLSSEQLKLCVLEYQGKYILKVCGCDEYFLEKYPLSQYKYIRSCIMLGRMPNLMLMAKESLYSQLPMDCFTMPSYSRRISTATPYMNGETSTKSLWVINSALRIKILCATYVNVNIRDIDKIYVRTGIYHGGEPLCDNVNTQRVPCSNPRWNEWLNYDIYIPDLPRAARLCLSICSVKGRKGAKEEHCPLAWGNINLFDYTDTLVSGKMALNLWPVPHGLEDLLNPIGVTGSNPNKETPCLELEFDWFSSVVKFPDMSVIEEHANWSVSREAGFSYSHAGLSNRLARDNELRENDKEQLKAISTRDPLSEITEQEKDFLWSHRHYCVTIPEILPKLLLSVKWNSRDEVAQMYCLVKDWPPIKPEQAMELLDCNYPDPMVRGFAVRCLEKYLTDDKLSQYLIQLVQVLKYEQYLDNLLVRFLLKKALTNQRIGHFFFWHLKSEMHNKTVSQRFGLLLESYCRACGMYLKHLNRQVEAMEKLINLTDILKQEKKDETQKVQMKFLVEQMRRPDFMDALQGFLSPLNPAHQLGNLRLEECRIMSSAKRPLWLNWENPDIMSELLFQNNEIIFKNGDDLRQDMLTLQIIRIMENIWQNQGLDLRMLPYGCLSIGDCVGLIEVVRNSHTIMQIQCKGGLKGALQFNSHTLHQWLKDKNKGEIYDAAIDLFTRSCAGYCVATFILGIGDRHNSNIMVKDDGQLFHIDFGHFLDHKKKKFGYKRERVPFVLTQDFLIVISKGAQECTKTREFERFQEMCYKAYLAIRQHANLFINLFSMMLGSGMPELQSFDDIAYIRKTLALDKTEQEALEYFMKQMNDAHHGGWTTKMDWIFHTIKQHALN
Chain of PI3Kα (p110α/p85α) (P27986 whole entry partner): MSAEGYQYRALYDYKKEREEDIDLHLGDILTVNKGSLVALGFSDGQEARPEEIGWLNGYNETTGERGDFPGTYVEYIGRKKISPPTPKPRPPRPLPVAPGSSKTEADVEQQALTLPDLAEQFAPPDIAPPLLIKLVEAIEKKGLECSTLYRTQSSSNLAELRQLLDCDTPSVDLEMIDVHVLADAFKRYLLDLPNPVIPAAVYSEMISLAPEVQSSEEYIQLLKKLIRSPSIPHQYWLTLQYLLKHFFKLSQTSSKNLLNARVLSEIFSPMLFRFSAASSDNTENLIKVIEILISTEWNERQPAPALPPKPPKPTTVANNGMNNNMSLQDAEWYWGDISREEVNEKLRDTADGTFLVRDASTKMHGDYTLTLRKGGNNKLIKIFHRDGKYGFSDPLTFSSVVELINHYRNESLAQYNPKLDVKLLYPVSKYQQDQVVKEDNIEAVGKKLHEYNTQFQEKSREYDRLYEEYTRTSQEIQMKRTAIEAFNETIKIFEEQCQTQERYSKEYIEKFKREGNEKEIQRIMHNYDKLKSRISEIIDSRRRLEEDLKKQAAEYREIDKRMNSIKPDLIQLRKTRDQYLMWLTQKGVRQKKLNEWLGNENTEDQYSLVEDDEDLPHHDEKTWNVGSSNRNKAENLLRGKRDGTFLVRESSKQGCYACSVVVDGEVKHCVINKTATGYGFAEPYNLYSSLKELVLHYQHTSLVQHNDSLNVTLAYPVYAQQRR
Chain of mTOR (human recombinant aa mTOR 1360-2549) (P42345 1360-2549): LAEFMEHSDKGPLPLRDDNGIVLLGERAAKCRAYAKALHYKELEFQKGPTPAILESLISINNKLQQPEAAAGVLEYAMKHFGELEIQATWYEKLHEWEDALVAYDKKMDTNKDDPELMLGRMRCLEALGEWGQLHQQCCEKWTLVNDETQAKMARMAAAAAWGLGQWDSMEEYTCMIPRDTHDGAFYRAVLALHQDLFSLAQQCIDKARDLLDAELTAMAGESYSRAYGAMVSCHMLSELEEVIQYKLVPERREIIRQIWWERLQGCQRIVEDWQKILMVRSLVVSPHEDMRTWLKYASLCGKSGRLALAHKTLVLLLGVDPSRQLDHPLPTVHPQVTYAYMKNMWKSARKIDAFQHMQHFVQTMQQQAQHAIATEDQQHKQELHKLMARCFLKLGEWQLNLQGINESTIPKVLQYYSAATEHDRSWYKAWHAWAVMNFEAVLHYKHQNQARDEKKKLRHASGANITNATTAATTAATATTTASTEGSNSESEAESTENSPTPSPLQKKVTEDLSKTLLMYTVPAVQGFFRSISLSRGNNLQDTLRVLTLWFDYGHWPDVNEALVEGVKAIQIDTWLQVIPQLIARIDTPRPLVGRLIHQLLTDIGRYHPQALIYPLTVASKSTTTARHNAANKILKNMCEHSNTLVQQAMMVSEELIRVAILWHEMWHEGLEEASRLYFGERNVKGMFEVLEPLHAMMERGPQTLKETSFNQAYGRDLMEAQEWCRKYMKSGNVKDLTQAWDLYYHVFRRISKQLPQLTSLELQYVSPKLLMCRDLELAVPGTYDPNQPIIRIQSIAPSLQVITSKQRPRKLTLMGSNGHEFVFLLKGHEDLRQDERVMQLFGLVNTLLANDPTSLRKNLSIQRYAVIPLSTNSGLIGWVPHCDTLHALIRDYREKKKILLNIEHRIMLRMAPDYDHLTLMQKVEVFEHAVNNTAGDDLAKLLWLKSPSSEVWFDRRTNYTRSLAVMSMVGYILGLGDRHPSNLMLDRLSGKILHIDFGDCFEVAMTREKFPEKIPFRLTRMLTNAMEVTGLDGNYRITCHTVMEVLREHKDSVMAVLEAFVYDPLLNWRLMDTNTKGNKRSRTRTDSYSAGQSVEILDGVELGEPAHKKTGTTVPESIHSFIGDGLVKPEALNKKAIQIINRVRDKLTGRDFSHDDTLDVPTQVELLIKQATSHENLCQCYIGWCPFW

With `CCN1CC(C)(C)Oc2nc(N3CC4CCC(C3)O4)nc(-c3ccc(NC(=O)Nc4cncc(OC)n4)cc3)c2C1=O` [Example 28, 1-{4-[6-ethyl-8,8-dimethyl-2-(8-oxa-3-azabicyclo[3.2.1]oct-3-yl)-5-oxo-5,6,7,8-tetrahydro-9-oxa-1,3,6-triazabenzocyclohepten-4-yl]phenyl}-3-(6-methoxypyrazin-2-yl)urea], the IC50 in test [1] was determined as 59 nM; with U87MG tumour cells, 508 nM; in the test with Akt-pS473 in U87MG cells, 42 nM. At PI3Kα (p110α/p85α), the “PI3Ka IC50” value was >10 µM.

On to `CCN1CC(C)(C)Oc2nc(N3CC4CCC(C3)O4)nc(-c3ccc(NC(=O)Nc4ccnc(N5CCN(S(C)(=O)=O)CC5)c4)c(F)c3)c2C1=O` [Example 80, 1-{4-[6-Ethyl-8,8-dimethyl-2-(8-oxa-3-azabicyclo[3.2.1]oct-3-yl)-5-oxo-5,6,7,8-tetrahydro-9-oxa-1,3,6-triazabenzocyclohepten-4-yl]-2-fluorophenyl}-3-[2-(4-methanesulfonylpiperazin-1-yl)pyridin-4-yl]urea], for which the IC50 came to 72 nM in test [1], 151 nM with U87MG tumour cells and 48 nM with Akt-pS473 in U87MG cells. Further, the “PI3Ka IC50” value on PI3Kα (p110α/p85α) was >10 µM.

With `CC[C@H]1COCCN1c1ccc(NC(=O)Nc2ccc(-c3nc(N4C5CCC4COC5)nc4c3C(=O)N(CC)CC(C)(C)O4)cc2F)cn1` [Example 249, 1-{4-[6-Ethyl-8,8-dimethyl-2-(3-oxa-8-azabicyclo[3.2.1]oct-8-yl)-5-oxo-5,6,7,8-tetrahydro-9-oxa-1,3,6-triazabenzocyclohepten-4-yl]-2-fluorophenyl}-3-[6-((S)-3-ethylmorpholin-4-yl)pyridin-3-yl]urea], the IC50 in test [1] is 365 nM; in the test with U87MG tumour cells, 29 nM; in the test with Akt-pS473 in U87MG cells, 27 nM. Also, the “PI3Ka IC50” value at PI3Kα (p110α/p85α) was >10 µM.

As to `CCN1CC(C)(C)Oc2nc(N3CC4CCC(C3)O4)nc(-c3ccc(NC(=O)Nc4ccc(OC)nn4)c(F)c3)c2C1=O` [Example 140, 1-{4-[6-Ethyl-8,8-dimethyl-2-(8-oxa-3-azabicyclo[3.2.1]oct-3-yl)-5-oxo-5,6,7,8-tetrahydro-9-oxa-1,3,6-triazabenzocyclohepten-4-yl]-2-fluorophenyl}-3-(6-methoxypyridazin-3-yl)urea], the IC50 in test [1] turned out to be 45 nM; with U87MG tumour cells it was 472 nM; with Akt-pS473 in U87MG cells, 507 nM. The “PI3Ka IC50” value at PI3Kα (p110α/p85α) was >10 µM.

As to `CN1CC(C)(C)Oc2nc(N3CC4CCC(C3)O4)nc(-c3ccc(NC(=O)Nc4ccncc4)cc3)c2C1=O` [Example 69, 1-Pyridin-4-yl-3-{4-[6,8,8-trimethyl-2-(8-oxa-3-azabicyclo[3.2.1]oct-3-yl)-5-oxo-5,6,7,8-tetrahydro-9-oxa-1,3,6-triazabenzocyclohepten-4-yl]phenyl}urea], the IC50 in test [1] amounted to 6 nM; with U87MG tumour cells it was 79 nM; with Akt-pS473 in U87MG cells, 35 nM. Besides, the “PI3Ka IC50” value at PI3Kα (p110α/p85α) was determined as 0.472 µM.

With `CCN1CC(C)(C)Oc2nc(N3CC4CCC(C3)O4)nc(-c3ccc(NC(=O)Nc4ccc(N5CCCC5)cn4)cc3)c2C1=O` [Example 25, 1-{4-[6-ethyl-8,8-dimethyl-2-(8-oxa-3-azabicyclo[3.2.1]oct-3-yl)-5-oxo-5,6,7,8-tetrahydro-9-oxa-1,3,6-triazabenzocyclohepten-4-yl]phenyl}-3-(5-pyrrolidin-1-ylpyridin-2-yl)urea], the IC50 in test [1] came out at 130 nM; with U87MG tumour cells, 196 nM; in the test on Akt-pS473 in U87MG cells, 124 nM. At PI3Kα (p110α/p85α), the “PI3Ka IC50” value is >10 µM.

`CCN1CC(C)(C)Oc2nc(N3CC4CCC(C3)O4)nc(-c3ccc(NC(=O)NCC4CCN(C)CC4)c(F)c3)c2C1=O` [Example 130, 1-{4-[6-Ethyl-8,8-dimethyl-2-(8-oxa-3-azabicyclo[3.2.1]oct-3-yl)-5-oxo-5,6,7,8-tetrahydro-9-oxa-1,3,6-triazabenzocyclohepten-4-yl]-2-fluorophenyl}-3-(1-methylpiperidin-4-ylmethyl)urea]: the IC50 in test [1] was 2120 nM; with U87MG tumour cells it was > 10000 nM; with Akt-pS473 in U87MG cells it was > 3000 nM. For the same compound, the “PI3Ka IC50” value at PI3Kα (p110α/p85α) was >10 µM.

For the compound `CCN1CC(C)(C)Oc2nc(N3CC4CCC(C3)O4)nc(-c3ccc(NC(=O)Nc4ccc(N5CCN(C)CC5)cc4)c(F)c3)c2C1=O` [Example 13, 1-{4-[6-ethyl-8,8-dimethyl-2-(8-oxa-3-azabicyclo[3.2.1]oct-3-yl)-5-oxo-5,6,7,8-tetrahydro-9-oxa-1,3,6-triazabenzocyclohepten-4-yl]-2-fluorophenyl}-3-[4-(4-methylpiperazin-1-yl)phenyl]urea], the results for the IC50 (in test [1]; in the test on U87MG tumour cells; in the test on Akt-pS473 in U87MG cells) were 132 nM, 32 nM and 13 nM, respectively. The “PI3Ka IC50” value at PI3Kα (p110α/p85α) was 6.47 µM.

On to `CCN1CC(C)(C)Oc2nc(N3CCOC[C@@H]3C)nc(-c3ccc(NC(=O)Nc4cccc(OC(F)F)c4)c(F)c3)c2C1=O` [Example 212, 1-(3-Difluoromethoxyphenyl)-3-{4-[6-ethyl-8,8-dimethyl-2-((S)-3-methylmorpholin-4-yl)-5-oxo-5,6,7,8-tetrahydro-9-oxa-1,3,6-triazabenzocyclohepten-4-yl]-2-fluorophenyl}urea], for which the IC50 in test [1] was found to be 141 nM; with U87MG tumour cells it was 71 nM; with Akt-pS473 in U87MG cells, 8 nM. For the same compound, the “PI3Ka IC50” value on PI3Kα (p110α/p85α) worked out at 1.54 µM.

`CCN1CC(C)(C)Oc2nc(N3CCOC[C@@H]3C)nc(-c3ccc(NC(=O)NC4CC4)c(F)c3)c2C1=O` [Example 150, 1-Cyclopropyl-3-{4-[6-ethyl-8,8-dimethyl-2-((S)-3-methylmorpholin-4-yl)-5-oxo-5,6,7,8-tetrahydro-9-oxa-1,3,6-triazabenzocyclohepten-4-yl]-2-fluorophenyl}urea]: the IC50 came to 40 nM in test [1], 201 nM in the test on U87MG tumour cells and 73 nM in the test on Akt-pS473 in U87MG cells. At PI3Kα (p110α/p85α), the “PI3Ka IC50” value turned out to be 5.8 µM.

For the compound `CCN1CC(C)(C)Oc2nc(N3CC4CCC(C3)O4)nc(-c3ccc(Nc4nc5ccccc5[nH]4)cc3)c2C1=O` [Example 118, 4-[4-(1H-Benzimidazol-2-ylamino)phenyl]-6-ethyl-8,8-dimethyl-2-(8-oxa-3-azabicyclo[3.2.1]oct-3-yl)-7,8-dihydro-6H-9-oxa-1,3,6-triazabenzocyclohepten-5-one], the IC50 worked out at 58 nM in test [1], 233 nM in the test on U87MG tumour cells and 32 nM in the test with Akt-pS473 in U87MG cells. Further, on PI3Kα (p110α/p85α), the “PI3Ka IC50” value was 5.04 µM.

Consider `CCN1CC(C)(C)Oc2nc(N3CC4CCC(C3)O4)nc(-c3ccc(NC(=O)Nc4ccncc4)c(F)c3)c2C1=O` [Example 52, 1-{4-[6-Ethyl-8,8-dimethyl-2-(8-oxa-3-azabicyclo[3.2.1]oct-3-yl)-5-oxo-5,6,7,8-tetrahydro-9-oxa-1,3,6-triazabenzocyclohepten-4-yl]-2-fluorophenyl}-3-pyridin-4-ylurea], for which the IC50 in test [1] stood at 18 nM; with U87MG tumour cells, 29 nM; with Akt-pS473 in U87MG cells, 16 nM. For the same compound, the “PI3Ka IC50” value on PI3Kα (p110α/p85α) was found to be 1.71 µM.

For `CCN1CC(C)(C)Oc2nc(N3CCOC[C@@H]3C)nc(-c3ccc(NC(=O)Nc4ccc(N5CCN(C)CC5)nc4)c(F)c3)c2C1=O` [Example 171, 1-{4-[6-Ethyl-8,8-dimethyl-2-((S)-3-methylmorpholin-4-yl)-5-oxo-5,6,7,8-tetrahydro-9-oxa-1,3,6-triazabenzocyclohepten-4-yl]-2-fluorophenyl}-3-[6-(4-methylpiperazin-1-yl)pyridin-3-yl]urea], the IC50 stood at 37 nM in test [1], 91 nM in the test on U87MG tumour cells and 41 nM in the test with Akt-pS473 in U87MG cells. In addition, the “PI3Ka IC50” value at PI3Kα (p110α/p85α) was found to be 0.308 µM.

For `CCN1CC(C)(C)Oc2nc(N3CCOC[C@@H]3C)nc(-c3ccc(NC(=O)Nc4ccn(C)n4)c(F)c3)c2C1=O` [Example 166, 1-{4-[6-Ethyl-8,8-dimethyl-2-((S)-3-methylmorpholin-4-yl)-5-oxo-5,6,7,8-tetrahydro-9-oxa-1,3,6-triazabenzocyclohepten-4-yl]-2-fluorophenyl}-3-(1-methyl-1H-pyrazol-3-yl)urea], the IC50 in test [1] was 86 nM; in the test on U87MG tumour cells it was 1270 nM; in the test on Akt-pS473 in U87MG cells, 278 nM. On PI3Kα (p110α/p85α), the “PI3Ka IC50” value worked out at 2.3 µM.

As to `CCN1CC(C)(C)Oc2nc(N3CCOC[C@@H]3C)nc(-c3ccc(NC(=O)Nc4ccc(OC)cn4)cc3)c2C1=O` [Example 173, 1-{4-[6-Ethyl-8,8-dimethyl-2-((S)-3-methylmorpholin-4-yl)-5-oxo-5,6,7,8-tetrahydro-9-oxa-1,3,6-triazabenzocyclohepten-4-yl]phenyl}-3-(5-methoxypyridin-2-yl)urea], the figures for the IC50 (in test [1]; with U87MG tumour cells; in the test with Akt-pS473 in U87MG cells) were 12 nM, 242 nM and 42 nM, respectively. The “PI3Ka IC50” value at PI3Kα (p110α/p85α) is 1.602 µM.

Regarding `CCN1CC(C)(C)Oc2nc(N3CC4CCC(C3)O4)nc(-c3ccc(NC(=O)Nc4cnn(C)c4)cc3)c2C1=O` [Example 126, 1-{4-[6-Ethyl-8,8-dimethyl-2-(8-oxa-3-azabicyclo[3.2.1]oct-3-yl)-5-oxo-5,6,7,8-tetrahydro-9-oxa-1,3,6-triazabenzocyclohepten-4-yl]phenyl}-3-(1-methyl-1H-pyrazol-4-yl)urea], the values for the IC50 (in test [1]; in the test on U87MG tumour cells; in the test with Akt-pS473 in U87MG cells) were 13 nM, 225 nM and 68 nM, respectively. Moreover, the “PI3Ka IC50” value on PI3Kα (p110α/p85α) came out at 2.963 µM.
